Several values for one entry are separate records, joined by “and”; a condition that tells them apart may be missing. Equal values may be shown once. Toxic doses and inconclusive results are not listed. The calls were made as follows: active = survival T/C of 150% or more; inactive = T/C below 125% in these data.
Tested on: CD2F1 mice, L1210 leukemia ip, survival T/C
Test: NCI In Vivo Anticancer Drug Screen. Data for tumor model L1210 Leukemia (intraperitoneal) in CD2F1 (CDF1) mice
Conditions: endpoint: mean survival time, higher = longer survival
Outline: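 Each value reflects a quotient of treated over vehicle control outcomes in mice with a transplanted tumor.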

[1] = dose: 50.0 mg/kg/injection, schedule: Q01DX009 (ip), vehicle: saline with Tween-80
[2] = dose: 100.0 mg/kg/injection, schedule: Q01DX009 (ip), vehicle: saline with Tween-80
[3] = dose: 100.0 mg/kg/injection, schedule: Q04DX003 (ip), vehicle: saline with Tween-80
[4] = dose: 200.0 mg/kg/injection, schedule: Q04DX003 (ip), vehicle: saline with Tween-80
[5] = dose: 400.0 mg/kg/injection, schedule: Q04DX003 (ip), vehicle: saline with Tween-80
[6] = dose: 200.0 mg/kg/injection, schedule: Q01DX009 (ip), vehicle: saline with Tween-80
[7] = dose: 400.0 mg/kg/injection, schedule: Q01DX009 (ip), vehicle: saline with Tween-80
[8] = dose: 100.0 mg/kg/injection, schedule: Q01DX001 (ip), vehicle: saline with Tween-80
[9] = dose: 200.0 mg/kg/injection, schedule: Q01DX001 (ip), vehicle: saline with Tween-80
[10] = dose: 100.0 mg/kg/injection, schedule: Q01DX001 (ip), vehicle: saline
[11] = dose: 200.0 mg/kg/injection, schedule: Q01DX001 (ip), vehicle: saline

Measured: T/C

Nc1nc(SCc2ccccc2[N+](=O)[O-])c2[nH]cnc2n1
inactive: dose: 125.0 mg/kg/injection, schedule: Q01DX Z (ip), vehicle: carboxymethylcellulose (CMC) 102 % of control | dose: 250.0 mg/kg/injection, schedule: Q01DX Z (ip), vehicle: carboxymethylcellulose (CMC) 104 % of control | dose: 500.0 mg/kg/injection, schedule: Q01DX Z (ip), vehicle: carboxymethylcellulose (CMC) 116 % of control | dose: 1000.0 mg/kg/injection, schedule: Q01DX Z (ip), vehicle: carboxymethylcellulose (CMC) 112 % of control

CCCCCCCCCCCCCCCc1nnc(SC)s1
inactive: [1] 95 % of control | [2] 88 % of control | [3] 91 % of control | [4] 87 % of control | [5] 96 % of control

O=C(Nc1ccc(C(=O)O)cc1)Nc1ccc(F)c(Cl)c1
inactive: dose: 50.0 mg/kg/injection, schedule: Q01DX009 (ip), vehicle: Klucel (hydroxypropylcellulose) (HPC) 109 % of control | dose: 100.0 mg/kg/injection, schedule: Q01DX009 (ip), vehicle: Klucel (hydroxypropylcellulose) (HPC) 102 % of control | dose: 100.0 mg/kg/injection, schedule: Q04DX003 (ip), vehicle: Klucel (hydroxypropylcellulose) (HPC) 104 % of control | dose: 200.0 mg/kg/injection, schedule: Q01DX009 (ip), vehicle: Klucel (hydroxypropylcellulose) (HPC) 95 % of control | dose: 200.0 mg/kg/injection, schedule: Q04DX003 (ip), vehicle: Klucel (hydroxypropylcellulose) (HPC) 104 % of control

O=C(CNC(=O)Nc1cccc(C(F)(F)F)c1)N/N=C/c1c(O)ccc2ccccc12
inactive: dose: 12.5 mg/kg/injection, schedule: Q01DX009 (ip), vehicle: saline with Tween-80 94 % of control | dose: 25.0 mg/kg/injection, schedule: Q01DX009 (ip), vehicle: saline with Tween-80 94 % of control | [1] 94 % of control and 96 % of control | [2] 100 % of control | [6] 100 % of control

O=C(SSC(=O)c1ccccc1)c1ccccc1
inactive: [2] 95 % of control | [3] 98 % of control | [6] 103 % of control | [4] 102 % of control | [7] 91 % of control | [5] 96 % of control

N#CC(CC(=O)c1ccc(Br)cc1)c1ccccc1 (stereo not given)
inactive: [3] 95 % of control | [4] 91 % of control | [5] 95 % of control

CC(CO)CCC(=O)C(C)C1C(=O)CC2[C@H]3CC=C4C[C@H](O)CC[C@@]4(C)C3CC[C@@]12C (stereo not given in full)
inactive: dose: 50.0 mg/kg/injection, schedule: Q01DX001 (ip), vehicle: saline with Tween-80 94 % of control | [8] 97 % of control | [9] 95 % of control

CCOC(CNCc1ccc(OC)cc1)OCC
inactive: [10] 104 % of control | [11] 111 % of control

OC1CC2CC1C1C=CCC21 (stereo not given)
inactive: [1] 95 % of control | [2] 98 % of control | [3] 93 % of control | [6] 93 % of control | [4] 93 % of control

O=C(/C=C\c1ccccc1)C(=O)/C=C/c1ccccc1
inactive: [3] 94 % of control | [4] 93 % of control | [5] 95 % of control

C[n+]1c(-c2cccc(-c3ccccc3)c2)c2cc(N)ccc2c2ccccc21
inactive: dose: 0.78 mg/kg/injection, schedule: Q01DX009 (ip), vehicle: other 92 % of control | dose: 1.56 mg/kg/injection, schedule: Q01DX009 (ip), vehicle: other 92 % of control | dose: 3.13 mg/kg/injection, schedule: Q01DX009 (ip), vehicle: other 104 % of control | dose: 6.25 mg/kg/injection, schedule: Q01DX009 (ip), vehicle: other 108 % of control and 110 % of control

[Cl][Pt+2][Cl].[NH-]c1ccc([N+](=O)[O-])cc1[NH-]
inactive: dose: 2.5 mg/kg/injection, schedule: Q01DX009 (ip), vehicle: saline with Tween-80 103 % of control | dose: 5.0 mg/kg/injection, schedule: Q01DX009 (ip), vehicle: saline with Tween-80 102 % of control | dose: 10.0 mg/kg/injection, schedule: Q01DX009 (ip), vehicle: saline with Tween-80 103 % of control | dose: 20.0 mg/kg/injection, schedule: Q01DX009 (ip), vehicle: saline with Tween-80 105 % of control and 107 % of control | dose: 40.0 mg/kg/injection, schedule: Q01DX009 (ip), vehicle: saline with Tween-80 106 % of control and 111 % of control | dose: 80.0 mg/kg/injection, schedule: Q01DX009 (ip), vehicle: saline with Tween-80 96 % of control

C/C(CCc1ccccc1)=N/O
inactive: dose: 100.0 mg/kg/injection, schedule: Q01DX009 (ip), vehicle: other 100 % of control | dose: 200.0 mg/kg/injection, schedule: Q01DX009 (ip), vehicle: other 103 % of control | dose: 400.0 mg/kg/injection, schedule: Q01DX009 (ip), vehicle: other 101 % of control

CC1(C)C(N2CCOCC2)C(c2ccccc2)S1(=O)=O (stereo not given)
inactive: [8] 101 % of control | [9] 105 % of control | dose: 400.0 mg/kg/injection, schedule: Q01DX001 (ip), vehicle: saline with Tween-80 105 % of control

OC(CC1CCCC(CC(O)c2ccccc2)N1CCc1ccccc1)c1ccccc1 (stereo not given)
inactive: dose: 75.0 mg/kg/injection, schedule: Q01DX001 (ip), vehicle: saline 97 % of control | dose: 150.0 mg/kg/injection, schedule: Q01DX001 (ip), vehicle: saline 91 % of control

O.O.O=S(=O)(O)O.[Co+3].[NH2-].[NH2-].[NH2-].[NH2-]
inactive: dose: 100.0 mg/kg/injection, schedule: Q04DX002 (ip), vehicle: saline 108 % of control

CCOC(=O)C1C(=O)N(c2ccccc2)C(=O)N1C (stereo not given)
inactive: dose: 12.5 mg/kg/injection, schedule: Q01DX009 (ip), vehicle: water 94 % of control | dose: 25.0 mg/kg/injection, schedule: Q01DX009 (ip), vehicle: water 93 % of control | dose: 50.0 mg/kg/injection, schedule: Q01DX009 (ip), vehicle: water 94 % of control | dose: 100.0 mg/kg/injection, schedule: Q01DX009 (ip), vehicle: water 98 % of control | dose: 200.0 mg/kg/injection, schedule: Q01DX009 (ip), vehicle: water 100 % of control

O=C(O)C1=CCC=CC1
inactive: [2] 104 % of control | [6] 97 % of control | [7] 106 % of control

C=CCSc1cccc(C)c1
inactive: [10] 96 % of control | [11] 97 % of control

C=CCCCCCCCCC(=O)NCc1cccnc1
inactive: [3] 98 % of control | [4] 104 % of control | [5] 90 % of control

Brc1ccc2c(c1)CCCC2
inactive: [3] 95 % of control | [4] 103 % of control | [5] 93 % of control

CC(C)C/C=N/NC(=O)c1ccc[n+](C)c1
inactive: dose: 50.0 mg/kg/injection, schedule: Q01DX001 (ip), vehicle: saline 107 % of control | [10] 109 % of control | [11] 103 % of control

COC(C(O)C=O)C(O)C(O)CO (stereo not given)
inactive: [3] 96 % of control | [4] 101 % of control | [5] 95 % of control

N#Cc1nnn(C2OC(CO)C(O)C2O)c1C#N (stereo not given)
inactive: dose: 12.5 mg/kg/injection, schedule: Q01DX005 (ip), vehicle: other 100 % of control | dose: 25.0 mg/kg/injection, schedule: Q01DX005 (ip), vehicle: other 97 % of control | dose: 50.0 mg/kg/injection, schedule: Q01DX005 (ip), vehicle: other 96 % of control | dose: 100.0 mg/kg/injection, schedule: Q01DX005 (ip), vehicle: other 94 % of control | dose: 200.0 mg/kg/injection, schedule: Q01DX005 (ip), vehicle: other 102 % of control

C=C(Cl)CSCCCS
inactive: dose: 100.0 mg/kg/injection, schedule: Q04DX003 (ip), vehicle: acetone 111 % of control | dose: 200.0 mg/kg/injection, schedule: Q04DX003 (ip), vehicle: acetone 116 % of control | dose: 400.0 mg/kg/injection, schedule: Q04DX003 (ip), vehicle: acetone 122 % of control
